The NIST ThermoML archive (doi:10.1016/j.fluid.2014.09.020)

Assay: mn = molality of the nth substance listed, in mol/kg
Settings: 101 kPa, Liquid; for viscosity: Capillary tube (Ostwald / Ubbelohde) method; for electrical conductivity: Direct current cell with electrodes; for mass density: Vibrating tube method

CCC[N+]1(C)CCCCC1.[Br-] [1-methyl-1-propylpiperidinium bromide] + O
Settings | electrical conductivity [S/m] | mass density [kg/m3] | viscosity [mPa·s]
293.15 K, m1 = 0.2501 | 1.61 | 1008.72 | 1.291
293.15 K, m1 = 0.5 | 2.44 | 1018.24 | 1.402
293.15 K, m1 = 0.75 | 3.08 | 1027.42 | 1.529
293.15 K, m1 = 0.9998 | 3.57 | 1036.22 | 1.669
293.15 K, m1 = 1.25 | 3.91 | 1044.44 | 1.84
293.15 K, m1 = 1.5 | 4.14 | 1052.29 | 2.03
293.15 K, m1 = 1.75 | 4.29 | 1059.77 | 2.216
293.15 K, m1 = 2.001 | 4.38 | 1066.77 | 2.419
293.15 K, m1 = 2.2 | 4.41 | 1072.13 | 2.604
293.15 K, m1 = 2.4 | 4.44 | 1077.21 | 2.792
298.15 K, m1 = 0.2501 | 1.75 | 1007.5 | 1.178
298.15 K, m1 = 0.5 | 2.64 | 1016.88 | 1.259
298.15 K, m1 = 0.75 | 3.33 | 1025.92 | 1.356
298.15 K, m1 = 0.9998 | 3.86 | 1034.59 | 1.466
298.15 K, m1 = 1.25 | 4.23 | 1042.69 | 1.607
298.15 K, m1 = 1.5 | 4.48 | 1050.42 | 1.769
298.15 K, m1 = 1.75 | 4.65 | 1057.79 | 1.922
298.15 K, m1 = 2.001 | 4.76 | 1064.7 | 2.091
298.15 K, m1 = 2.2 | 4.81 | 1069.98 | 2.249
298.15 K, m1 = 2.4 | 4.85 | 1074.98 | 2.408
303.15 K, m1 = 0.2501 | 1.9 | 1006.09 | 1.044
303.15 K, m1 = 0.5 | 2.83 | 1015.33 | 1.116
303.15 K, m1 = 0.75 | 3.57 | 1024.23 | 1.203
303.15 K, m1 = 0.9998 | 4.14 | 1032.75 | 1.302
303.15 K, m1 = 1.25 | 4.54 | 1040.75 | 1.424
303.15 K, m1 = 1.5 | 4.82 | 1048.38 | 1.559
303.15 K, m1 = 1.75 | 5.04 | 1055.64 | 1.688
303.15 K, m1 = 2.001 | 5.18 | 1062.46 | 1.827
303.15 K, m1 = 2.2 | 5.24 | 1067.67 | 1.951
303.15 K, m1 = 2.4 | 5.3 | 1072.61 | 2.073
308.15 K, m1 = 0.2501 | 2.04 | 1004.66 | 0.9225
308.15 K, m1 = 0.5 | 3.03 | 1013.72 | 0.9723
308.15 K, m1 = 0.75 | 3.82 | 1022.62 | 1.037
308.15 K, m1 = 0.9998 | 4.43 | 1030.82 | 1.113
308.15 K, m1 = 1.25 | 4.86 | 1038.67 | 1.206
308.15 K, m1 = 1.5 | 5.16 | 1046.1 | 1.311
308.15 K, m1 = 1.75 | 5.4 | 1053.72 | 1.417
308.15 K, m1 = 2.001 | 5.57 | 1060.11 | 1.53
308.15 K, m1 = 2.2 | 5.65 | 1065.32 | 1.629
308.15 K, m1 = 2.4 | 5.72 | 1070.23 | 1.728

CC[N+]1(C)CCCCC1.[Br-] [N-ethyl-N-methylpiperidinium bromide] + O
Settings | electrical conductivity [S/m] | mass density [kg/m3] | viscosity [mPa·s]
293.15 K, m1 = 0.2501 | 1.67 | 1009.34 | 1.412
293.15 K, m1 = 0.5 | 2.69 | 1019.49 | 1.432
293.15 K, m1 = 0.75 | 3.46 | 1029.24 | 1.492
293.15 K, m1 = 0.9992 | 4.01 | 1038.65 | 1.587
293.15 K, m1 = 1.25 | 4.41 | 1047.4 | 1.707
293.15 K, m1 = 1.5 | 4.68 | 1055.5 | 1.849
293.15 K, m1 = 1.75 | 4.84 | 1063.82 | 2.021
293.15 K, m1 = 1.998 | 4.94 | 1071.67 | 2.208
293.15 K, m1 = 2.2 | 5.03 | 1077.12 | 2.361
293.15 K, m1 = 2.4 | 5.12 | 1082.45 | 2.521
298.15 K, m1 = 0.2501 | 1.94 | 1007.59 | 1.254
298.15 K, m1 = 0.5 | 2.92 | 1017.73 | 1.274
298.15 K, m1 = 0.75 | 3.72 | 1027.52 | 1.325
298.15 K, m1 = 0.9992 | 4.36 | 1036.99 | 1.401
298.15 K, m1 = 1.25 | 4.82 | 1045.62 | 1.516
298.15 K, m1 = 1.5 | 5.14 | 1053.61 | 1.655
298.15 K, m1 = 1.75 | 5.42 | 1061.89 | 1.787
298.15 K, m1 = 1.998 | 5.61 | 1069.59 | 1.932
298.15 K, m1 = 2.2 | 5.68 | 1074.97 | 2.069
298.15 K, m1 = 2.4 | 5.73 | 1080.2 | 2.2
303.15 K, m1 = 0.2501 | 2.02 | 1005.68 | 1.038
303.15 K, m1 = 0.5 | 3.08 | 1015.67 | 1.091
303.15 K, m1 = 0.75 | 3.95 | 1025.8 | 1.161
303.15 K, m1 = 0.9992 | 4.65 | 1034.64 | 1.248
303.15 K, m1 = 1.25 | 5.15 | 1043.44 | 1.349
303.15 K, m1 = 1.5 | 5.5 | 1051.59 | 1.46
303.15 K, m1 = 1.75 | 5.81 | 1059.87 | 1.583
303.15 K, m1 = 1.998 | 6.02 | 1067.36 | 1.712
303.15 K, m1 = 2.2 | 6.09 | 1072.73 | 1.82
303.15 K, m1 = 2.4 | 6.15 | 1077.82 | 1.931
308.15 K, m1 = 0.2501 | 2.24 | 1003.67 | 0.8791
308.15 K, m1 = 0.5 | 3.29 | 1013.78 | 0.9294
308.15 K, m1 = 0.75 | 4.2 | 1023.78 | 0.9953
308.15 K, m1 = 0.9992 | 4.98 | 1032.63 | 1.074
308.15 K, m1 = 1.25 | 5.54 | 1041.4 | 1.163
308.15 K, m1 = 1.5 | 5.93 | 1049.3 | 1.26
308.15 K, m1 = 1.75 | 6.34 | 1057.7 | 1.363
308.15 K, m1 = 1.998 | 6.61 | 1064.48 | 1.469
308.15 K, m1 = 2.2 | 6.66 | 1070.15 | 1.554
308.15 K, m1 = 2.4 | 6.69 | 1075.12 | 1.639

CCCC[N+]1(C)CCCCC1.[Br-] [N-butyl-N-methylpiperidinium bromide] + O
Settings | electrical conductivity [S/m] | mass density [kg/m3] | viscosity [mPa·s]
293.15 K, m1 = 0.25 | 1.58 | 1008.15 | 1.271
293.15 K, m1 = 0.5006 | 2.29 | 1017.18 | 1.451
293.15 K, m1 = 0.7499 | 2.83 | 1025.78 | 1.631
293.15 K, m1 = 0.9999 | 3.23 | 1034.01 | 1.819
293.15 K, m1 = 1.25 | 3.5 | 1041.71 | 2.004
293.15 K, m1 = 1.5 | 3.66 | 1049.03 | 2.199
293.15 K, m1 = 1.75 | 3.77 | 1055.94 | 2.422
293.15 K, m1 = 2 | 3.83 | 1062.38 | 2.663
293.15 K, m1 = 2.2 | 3.85 | 1067.29 | 2.863
293.15 K, m1 = 2.4 | 3.87 | 1071.91 | 3.084
298.15 K, m1 = 0.25 | 1.64 | 1006.6 | 1.114
298.15 K, m1 = 0.5006 | 2.44 | 1015.55 | 1.283
298.15 K, m1 = 0.7499 | 3.04 | 1024.1 | 1.442
298.15 K, m1 = 0.9999 | 3.49 | 1032.29 | 1.598
298.15 K, m1 = 1.25 | 3.78 | 1039.86 | 1.75
298.15 K, m1 = 1.5 | 3.96 | 1047.06 | 1.907
298.15 K, m1 = 1.75 | 4.08 | 1053.87 | 2.087
298.15 K, m1 = 2 | 4.15 | 1060.17 | 2.287
298.15 K, m1 = 2.2 | 4.17 | 1064.99 | 2.457
298.15 K, m1 = 2.4 | 4.2 | 1069.52 | 2.649
303.15 K, m1 = 0.25 | 1.77 | 1004.71 | 0.9885
303.15 K, m1 = 0.5006 | 2.61 | 1013.61 | 1.133
303.15 K, m1 = 0.7499 | 3.26 | 1022.18 | 1.266
303.15 K, m1 = 0.9999 | 3.75 | 1030.35 | 1.394
303.15 K, m1 = 1.25 | 4.09 | 1037.65 | 1.528
303.15 K, m1 = 1.5 | 4.32 | 1044.94 | 1.67
303.15 K, m1 = 1.75 | 4.48 | 1051.69 | 1.812
303.15 K, m1 = 2 | 4.57 | 1057.79 | 1.972
303.15 K, m1 = 2.2 | 4.6 | 1062.59 | 2.119
303.15 K, m1 = 2.4 | 4.63 | 1066.98 | 2.279
308.15 K, m1 = 0.25 | 1.86 | 1002.93 | 0.882
308.15 K, m1 = 0.5006 | 2.77 | 1011.89 | 0.98
308.15 K, m1 = 0.7499 | 3.47 | 1020.33 | 1.078
308.15 K, m1 = 0.9999 | 4.01 | 1028.69 | 1.179
308.15 K, m1 = 1.25 | 4.39 | 1035.69 | 1.282
308.15 K, m1 = 1.5 | 4.64 | 1043.08 | 1.392
308.15 K, m1 = 1.75 | 4.82 | 1049.51 | 1.511
308.15 K, m1 = 2 | 4.92 | 1055.41 | 1.639
308.15 K, m1 = 2.2 | 4.96 | 1060.23 | 1.749
308.15 K, m1 = 2.4 | 4.99 | 1064.28 | 1.868
